According to patent US8785429B2, “Dihydropyrrolonaphthyridinone compounds as inhibitors of JAK” (Takeda Pharmaceutical Company Limited, priority 2009, dated 2014):

How the values were obtained:
[1] = target: T1, JAK2 (Homo sapiens, UniProt O60674); experiment: Assay for JAK2 Inhibition (phosphorylation of FAM-labeled substrate, Caliper LC-3000); format: biochemical; details: −log10(IC50), IC50 is the molar concentration at 50% inhibition; read-out: JAK2 pIC50 (converted)
T1 construct: purchased Invitrogen

[2] = target: T2, JAK3 (Homo sapiens, UniProt P52333); experiment: Assay for JAK3 Inhibition (phosphorylation of FAM-labeled substrate, Caliper LC-3000); format: biochemical; details: −log10(IC50), IC50 is the molar concentration at 50% inhibition; read-out: JAK3 pIC50 (converted)
T2 construct: purchased Invitrogen
T2 sequence (P52333 1-1124): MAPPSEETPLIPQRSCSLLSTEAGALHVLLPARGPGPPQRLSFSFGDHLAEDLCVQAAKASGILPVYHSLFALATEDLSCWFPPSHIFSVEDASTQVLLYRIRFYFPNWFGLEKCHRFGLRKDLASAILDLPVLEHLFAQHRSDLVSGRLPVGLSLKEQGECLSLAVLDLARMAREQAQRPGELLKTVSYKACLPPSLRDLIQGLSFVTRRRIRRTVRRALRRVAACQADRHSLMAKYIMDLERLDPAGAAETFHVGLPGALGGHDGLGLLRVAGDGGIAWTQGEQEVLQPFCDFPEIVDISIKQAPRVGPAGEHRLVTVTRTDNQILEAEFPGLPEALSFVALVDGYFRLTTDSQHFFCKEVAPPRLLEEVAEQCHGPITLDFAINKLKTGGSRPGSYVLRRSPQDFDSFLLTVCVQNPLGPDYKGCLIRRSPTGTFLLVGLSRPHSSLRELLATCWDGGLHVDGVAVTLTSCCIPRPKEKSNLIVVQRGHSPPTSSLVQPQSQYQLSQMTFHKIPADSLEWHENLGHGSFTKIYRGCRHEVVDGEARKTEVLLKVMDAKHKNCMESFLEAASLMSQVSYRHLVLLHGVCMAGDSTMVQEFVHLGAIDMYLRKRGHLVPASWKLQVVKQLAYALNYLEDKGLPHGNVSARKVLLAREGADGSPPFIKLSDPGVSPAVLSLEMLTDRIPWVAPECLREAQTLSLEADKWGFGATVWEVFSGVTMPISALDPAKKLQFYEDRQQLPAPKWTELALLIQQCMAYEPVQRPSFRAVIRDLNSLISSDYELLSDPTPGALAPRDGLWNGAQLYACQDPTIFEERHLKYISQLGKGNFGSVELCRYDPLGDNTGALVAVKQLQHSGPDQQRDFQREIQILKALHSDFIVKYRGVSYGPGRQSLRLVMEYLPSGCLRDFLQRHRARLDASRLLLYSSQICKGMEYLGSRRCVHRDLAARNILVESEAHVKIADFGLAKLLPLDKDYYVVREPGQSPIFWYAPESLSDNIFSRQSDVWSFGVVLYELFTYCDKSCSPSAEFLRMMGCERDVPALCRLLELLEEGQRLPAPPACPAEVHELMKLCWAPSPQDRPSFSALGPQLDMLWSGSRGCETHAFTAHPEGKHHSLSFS

T1 sequence (O60674 whole entry): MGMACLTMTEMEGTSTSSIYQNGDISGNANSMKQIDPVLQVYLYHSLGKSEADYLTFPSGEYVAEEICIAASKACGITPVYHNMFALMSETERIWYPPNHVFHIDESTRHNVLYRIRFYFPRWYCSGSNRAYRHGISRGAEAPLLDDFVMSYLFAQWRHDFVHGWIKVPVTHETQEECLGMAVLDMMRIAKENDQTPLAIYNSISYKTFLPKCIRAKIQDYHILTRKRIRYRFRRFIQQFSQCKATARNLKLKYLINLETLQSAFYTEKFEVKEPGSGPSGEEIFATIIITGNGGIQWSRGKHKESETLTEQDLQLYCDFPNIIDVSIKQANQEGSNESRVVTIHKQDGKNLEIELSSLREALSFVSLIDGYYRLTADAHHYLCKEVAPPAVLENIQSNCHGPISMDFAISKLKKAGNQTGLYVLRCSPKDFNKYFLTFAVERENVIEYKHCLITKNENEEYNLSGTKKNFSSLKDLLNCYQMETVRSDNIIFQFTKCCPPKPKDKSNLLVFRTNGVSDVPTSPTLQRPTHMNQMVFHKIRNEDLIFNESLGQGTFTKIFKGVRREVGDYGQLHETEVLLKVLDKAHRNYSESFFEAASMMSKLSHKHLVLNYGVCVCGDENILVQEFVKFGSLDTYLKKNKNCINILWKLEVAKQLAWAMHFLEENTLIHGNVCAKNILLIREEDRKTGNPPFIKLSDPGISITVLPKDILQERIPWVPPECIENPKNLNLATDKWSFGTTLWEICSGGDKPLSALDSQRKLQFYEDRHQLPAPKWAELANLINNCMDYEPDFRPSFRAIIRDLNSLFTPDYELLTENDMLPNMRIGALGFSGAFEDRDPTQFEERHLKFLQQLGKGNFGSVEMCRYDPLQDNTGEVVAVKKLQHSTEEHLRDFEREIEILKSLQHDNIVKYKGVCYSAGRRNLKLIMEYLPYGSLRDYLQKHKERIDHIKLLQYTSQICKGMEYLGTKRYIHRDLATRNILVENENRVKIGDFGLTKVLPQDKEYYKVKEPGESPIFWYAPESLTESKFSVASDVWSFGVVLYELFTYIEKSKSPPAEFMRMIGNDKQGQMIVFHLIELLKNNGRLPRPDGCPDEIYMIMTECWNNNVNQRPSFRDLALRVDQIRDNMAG

**Q.** How did the IC50 [1] turn out when `CC[C@H](C(=O)NC1CC1)N1Cc2ccnc3[nH]cc(c23)C1=O` [Example 65, (R)—N-cyclopropyl-2-(3-oxopyrrolo[4,3,2-de][2,6]naphthyridin-4(1H,3H,5H)-yl)butanamide] was run?
**A.** 6310 nM

**Q.** What about the IC50 [2] of the same compound?
**A.** 2000 nM

**Q.** Which results are given for `CC[C@H](C(=O)NCC1CC1)N1Cc2ccnc3[nH]cc(c23)C1=O` [Example 66, (R)—N-(cyclopropylmethyl)-2-(3-oxopyrrolo[4,3,2-de][2,6]naphthyridin-4(1H,3H,5H)-yl)butanamide]?
**A.** IC50 [1]: 20000 nM; IC50 [2]: 3980 nM

**Q.** How did the IC50 [1] turn out when `CC[C@H](C(=O)NCC(C)C)N1Cc2ccnc3[nH]cc(c23)C1=O` [Example 67, (R)—N-isobutyl-2-(3-oxopyrrolo[4,3,2-de][2,6]naphthyridin-4(1H,3H,5H)-yl)butanamide] was run?
**A.** 5010 nM

**Q.** What about the IC50 [2] of the same compound?
**A.** 251 nM

**Q.** `CC[C@H](C(=O)N(C)CC(C)C)N1Cc2ccnc3[nH]cc(c23)C1=O` [Example 68, (R)—N-isobutyl-N-methyl-2-(3-oxopyrrolo[4,3,2-de][2,6]naphthyridin-4(1H,3H,5H)-yl)butanamide] was tested. Which IC50 [1] did it give?
**A.** 20000 nM

**Q.** And the IC50 [2]?
**A.** 2510 nM

**Q.** With `CC[C@H](C(=O)NC(C)CO)N1Cc2ccnc3[nH]cc(c23)C1=O` (stereo partly drawn) [Example 69, (2R)—N-(1-hydroxypropan-2-yl)-2-(3-oxopyrrolo[4,3,2-de][2,6]naphthyridin-4(1H,3H,5H)-yl)butanamide] as the compound, how does the IC50 [1] read?
**A.** 10000 nM

**Q.** And the IC50 [2]?
**A.** 631 nM

**Q.** With `CC[C@H](C(=O)NCC(C)(C)O)N1Cc2ccnc3[nH]cc(c23)C1=O` [Example 70, (R)—N-(2-hydroxy-2-methylpropyl)-2-(3-oxopyrrolo[4,3,2-de][2,6]naphthyridin-4(1H,3H,5H)-yl)butanamide] as the compound, how does the IC50 [1] read?
**A.** 10000 nM

**Q.** What about the IC50 [2] of the same compound?
**A.** 501 nM

**Q.** For `CC[C@H](C(=O)NC[C@H](O)CO)N1Cc2ccnc3[nH]cc(c23)C1=O` [Example 71, (R)—N—((S)-2,3-dihydroxypropyl)-2-(3-oxopyrrolo[4,3,2-de][2,6]naphthyridin-4(1H,3H,5H)-yl)butanamide], which IC50 [1] is on record?
**A.** 5010 nM

**Q.** What about the IC50 [2] of the same compound?
**A.** 794 nM

**Q.** How did the IC50 [1] turn out when `CC[C@H](C(=O)Nc1ccccc1)N1Cc2ccnc3[nH]cc(c23)C1=O` [Example 72, (R)-2-(3-oxopyrrolo[4,3,2-de][2,6]naphthyridin-4(1H,3H,5H)-yl)-N-phenylbutanamide] was run?
**A.** 2000 nM

**Q.** What about the IC50 [2] of the same compound?
**A.** 126 nM

**Q.** Which IC50 [1] does the source give for `CC[C@H](C(=O)NC1CCN(S(C)(=O)=O)CC1)N1Cc2ccnc3[nH]cc(c23)C1=O` [Example 73, (R)—N-(1-(methylsulfonyl)piperidin-4-yl)-2-(3-oxopyrrolo[4,3,2-de][2,6]naphthyridin-4(1H,3H,5H)-yl)butanamide] here?
**A.** 3160 nM

**Q.** And the IC50 [2]?
**A.** 158 nM

**Q.** Which IC50 [1] does the source give for `CC[C@H](C(=O)NCC1CCCO1)N1Cc2ccnc3[nH]cc(c23)C1=O` (stereo partly drawn) [Example 74, (2R)-2-(3-oxopyrrolo[4,3,2-de][2,6]naphthyridin-4(1H,3H,5H)-yl)-N-((tetrahydrofuran-2-yl)methyl)butanamide] here?
**A.** 7940 nM

**Q.** What about the IC50 [2] of the same compound?
**A.** 794 nM

**Q.** For `CC(C#N)NC(=O)[C@@H](C(C)C)N1Cc2c(F)cnc3[nH]cc(c23)C1=O` (stereo partly drawn) [Example 75, (2R)—N-(1-cyanoethyl)-2-(6-fluoro-3-oxopyrrolo[4,3,2-de][2,6]naphthyridin-4(1H,3H,5H)-yl)-3-methylbutanamide], which IC50 [1] is on record?
**A.** 794 nM

**Q.** And the IC50 [2]?
**A.** 31.6 nM

**Q.** What does the source list for `CC(C)[C@H](C(=O)N1CC(F)(F)C1)N1Cc2c(F)cnc3[nH]cc(c23)C1=O` [Example 76, (R)-4-(1-(3,3-difluoroazetidin-1-yl)-3-methyl-1-oxobutan-2-yl)-6-fluoro-4,5-dihydropyrrolo[4,3,2-de][2,6]naphthyridin-3(1 H)-one]?
**A.** IC50 [1]: 1000 nM; IC50 [2]: 63.1 nM

**Q.** `CC(C)[C@H](C(=O)N1CCS(=O)(=O)C1)N1Cc2c(F)cnc3[nH]cc(c23)C1=O` [Example 77, (R)-4-(1-(1,1-dioxidothiazolidin-3-yl)-3-methyl-1-oxobutan-2-yl)-6-fluoro-4,5-dihydropyrrolo[4,3,2-de][2,6]naphthyridin-3(1H)-one] was tested. Which IC50 [1] did it give?
**A.** 1580 nM

**Q.** What about the IC50 [2] of the same compound?
**A.** 63.1 nM

**Q.** Which IC50 [1] does the source give for `CC(C)[C@H](C(=O)N(C)CCS(C)(=O)=O)N1Cc2c(F)cnc3[nH]cc(c23)C1=O` [Example 78, (R)-2-(6-fluoro-3-oxopyrrolo[4,3,2-de][2,6]naphthyridin-4(1H,3H,5H)-yl)-N,3-dimethyl-N-(2-(methylsulfonyl)ethyl)butanamide] here?
**A.** 10000 nM

**Q.** What about the IC50 [2] of the same compound?
**A.** 3980 nM

**Q.** Which IC50 [1] does the source give for `CC(C)[C@H](C(=O)N(C)CC#N)N1Cc2c(F)cnc3[nH]cc(c23)C1=O` [Example 79, (R)—N-(cyanomethyl)-2-(6-fluoro-3-oxopyrrolo[4,3,2-de][2,6]naphthyridin-4(1H,3H,5H)-yl)-N,3-dimethylbutanamide] here?
**A.** 2510 nM

**Q.** What about the IC50 [2] of the same compound?
**A.** 126 nM

**Q.** Which IC50 [1] does the source give for `CC(C)[C@H](C(=O)N1CC(C(F)F)C1)N1Cc2c(F)cnc3[nH]cc(c23)C1=O` [Example 80, (R)-4-(1-(3-(difluoromethyl)azetidin-1-yl)-3-methyl-1-oxobutan-2-yl)-6-fluoro-4,5-dihydropyrrolo[4,3,2-de][2,6]naphthyridin-3(1H)-one] here?
**A.** 398 nM

**Q.** And the IC50 [2]?
**A.** 15.8 nM

**Q.** `CC(C)[C@H](C(=O)N1CC(C#N)C1)N1Cc2ccnc3[nH]cc(c23)C1=O` [Example 81, (R)-1-(3-methyl-2-(3-oxopyrrolo[4,3,2-de][2,6]naphthyridin-4(1H,3H,5H)-yl)butanoyl)azetidine-3-carbonitrile] was tested. Which IC50 [1] did it give?
**A.** 126 nM

**Q.** And the IC50 [2]?
**A.** 5.01 nM

**Q.** How did the IC50 [1] turn out when `CC(C)(C)[C@H](C(=O)N1CC(C#N)C1)N1Cc2ccnc3[nH]cc(c23)C1=O` [Example 82, (R)-1-(3,3-dimethyl-2-(3-oxopyrrolo[4,3,2-de][2,6]naphthyridin-4(1H,3H,5H)-yl)butanoyl)azetidine-3-carbonitrile] was run?
**A.** 39.8 nM

**Q.** And the IC50 [2]?
**A.** 2 nM

**Q.** How did the IC50 [1] turn out when `CC(C)(C)[C@H](C(=O)NCC#N)N1Cc2ccnc3[nH]cc(c23)C1=O` [Example 83, (R)—N-(cyanomethyl)-3,3-dimethyl-2-(3-oxopyrrolo[4,3,2-de][2,6]naphthyridin-4(1H,3H,5H)-yl)butanamide] was run?
**A.** 251 nM

**Q.** What about the IC50 [2] of the same compound?
**A.** 12.6 nM

**Q.** What does the source list for `CC(C)[C@H](C(=O)N1CCC[C@H]1C#N)N1Cc2c(Cl)cnc3[nH]cc(c23)C1=O` [Example 84, (S)-1-((R)-2-(6-chloro-3-oxopyrrolo[4,3,2-de][2,6]naphthyridin-4(1H,3H,5H)-yl)-3-methylbutanoyl)pyrrolidine-2-carbonitrile]?
**A.** IC50 [1]: 3160 nM; IC50 [2]: 200 nM

**Q.** What does the source list for `CC(C)[C@H](C(=O)N1CCC[C@@H]1C#N)N1Cc2c(Cl)cnc3[nH]cc(c23)C1=O` [Example 85, (R)-1-((R)-2-(6-chloro-3-oxopyrrolo[4,3,2-de][2,6]naphthyridin-4(1H,3H,5H)-yl)-3-methylbutanoyl)pyrrolidine-2-carbonitrile]?
**A.** IC50 [1]: 1580 nM; IC50 [2]: 100 nM

**Q.** Which IC50 [1] does the source give for `CC(C)[C@H](C(=O)N1C[C@@H](F)C[C@H]1C#N)N1Cc2c(Cl)cnc3[nH]cc(c23)C1=O` [Example 86, (2S,4S)-1-((R)-2-(6-chloro-3-oxopyrrolo[4,3,2-de][2,6]naphthyridin-4(1H,3H,5H)-yl)-3-methylbutanoyl)-4-fluoropyrrolidine-2-carbonitrile] here?
**A.** 398 nM

**Q.** And the IC50 [2]?
**A.** 25.1 nM

**Q.** With `Cc1cnc2[nH]cc3c2c1CN([C@@H](C(=O)N1CC(C#N)C1)C(C)(C)C)C3=O` [Example 87, (R)-1-(3,3-dimethyl-2-(6-methyl-3-oxopyrrolo[4,3,2-de][2,6]naphthyridin-4(1H,3H,5H)-yl)butanoyl)azetidine-3-carbonitrile] as the compound, how does the IC50 [1] read?
**A.** 50.1 nM

**Q.** And the IC50 [2]?
**A.** 3.16 nM

**Q.** With `Cc1cnc2[nH]cc3c2c1CN([C@@H](C(=O)N1CC(C#N)C1)C(C)C)C3=O` [Example 88, (R)-1-(3-methyl-2-(6-methyl-3-oxopyrrolo[4,3,2-de][2,6]naphthyridin-4(1H,3H,5H)-yl)butanoyl)azetidine-3-carbonitrile] as the compound, how does the IC50 [1] read?
**A.** 25.1 nM

**Q.** And the IC50 [2]?
**A.** 1.58 nM
